In patent US20150322049A1, “LEUKOTRIENE PATHWAY ANTAGONISTS FOR THE TREATMENT OF DEMENTIA, COGNITIVE DEFICITS IN PARKINSON'S DISEASE AND/OR LEARNING AND MEMORY DEFICIENCIES IN PARKINSON'S DISEASE” (priority 2012, published 2015):
Where two headings read alike, the source gives them in different places.

Legend:
[1] = tested on: neural progenitor cells (NPC); settings: cited from earlier work; for influence on the proliferation of NPCs: treatment of NPCs with leukotriene
[2] = tested on: CysLT1R-mediated amyloid-beta generation; settings: cited from earlier work
[3] = Body weight on day 1 and day 42 of treatment; type: in vivo, rat; settings: young and old rats, 10 mg kg^-1 p.o. daily
Description: For the analysis of cell survival and cell differentiation, all rats received intraperitoneal injections of BrdU (Sigma, Germany) at 50 mg kg^−1 of body weight dissolved in 0.9% saline solution on day 12, 13, 14 and 15.
GPR17 is highly expressed in food-intake-regulating Agrp Neurons, and intraventricular infusion of GPR17 agonists elevates food intake (Ren, 2012, Cell, 8; 149(6):1314-26). […] Therefore, each rat was weighed at the beginning of the experiment (day 1) and directly before the perfusion (day 42).

[4] = tested on: neural stem cell (NSC); settings: cited from earlier work
[5] = tested on: young rats; settings: intraperitoneal, combination treatment with rofecoxib; cited from earlier work
[6] = tested on: Alzheimer's disease patients; settings: cited from earlier work

Question: Which “influence on the proliferation of NPCs” value [1] does the source give for `CCCCC/C=C\C\C=C/C=C/C=C/[C@@H](SC[C@H](NC(=O)CC[C@H](N)C(=O)O)C(=O)NCC(=O)O)[C@@H](O)CCCC(=O)O` [Leukotriene C4] here?
Answer: The value was “no influence”.

Question: For `CCCCC/C=C\C\C=C/C=C/C=C/[C@@H](SC[C@H](N)C(=O)NCC(=O)O)[C@@H](O)CCCC(=O)O` [Leukotriene D4], which “influence on the proliferation of NPCs” value [1] is on record?
Answer: The value was “no influence”.

Question: And the effect on cognition ([2]; 3 month old mice)?
Answer: Its effect on cognition is “induce cognitive impairment”.

Question: For `CC(C)(O)c1ccccc1CC[C@@H](SCC1(CC(=O)O)CC1)c1cccc(/C=C/c2ccc3ccc(Cl)cc3n2)c1` [Montelukast, montelukast], which “body weight vs vehicle treated counterparts” value [3] is on record?
Answer: Its value is “did not differ”.

Question: What about the “body weight vs vehicle treated counterparts” value ([3]; listed as montelukast) of the same compound?
Answer: The value was “remained stable”.

Question: What about the NPC proliferation rate ([1]; 1 μM) of the same compound?
Answer: The NPC proliferation rate was “did not alter”.

Question: And the NPC proliferation ([1]; 10 μM)?
Answer: Its NPC proliferation is “increased proliferation”.

Question: What about the NPC proliferation ([1]; 15 μM) of the same compound?
Answer: The NPC proliferation was “increased proliferation”.

Question: What about the NPC proliferation rate ([1]; 30 μM) of the same compound?
Answer: The NPC proliferation rate was “did not alter”.

Question: And the NPC proliferation ([1]; 50 μM)?
Answer: Its NPC proliferation is “significant reduction”.

Question: What about the NPC proliferation ([1]; 100 μM) of the same compound?
Answer: Its NPC proliferation is “significant reduction”.

Question: And the NSC proliferation ([4]; 15 μM)?
Answer: Its NSC proliferation is “significantly increase”.

Question: What about the “proliferative potential of the NSCs” value ([4]; 30 μM) of the same compound?
Answer: The value was “significantly reduced”.

Question: And the “proliferative potential of the NSCs” value ([4]; 100 μM)?
Answer: Its value is “significantly reduced”.

Question: What about the “effect against kainic acid-induced cognitive dysfunction in combination with rofecoxib” value [5] of the same compound?
Answer: Its value is “potentiates the protective effect of rofecoxib”.

Question: Which mental functions [6] does the source give for `COc1ccc2c(c1)c(CC(=O)O)c(C)n2C(=O)c1ccc(Cl)cc1` [indomethacin] here?
Answer: Its mental functions is “stabilize mental functions”.

Question: For pranlukast, which “leukotriene D4-induced increase in amyloid-beta generation” value ([2]; 3 month old mice, injected bilaterally 2.5 mm below the dura) is on record?
Answer: The value was “inhibited”.

Question: What about the “learning impairment and memory loss caused by leukotriene D4 treatment” value ([2]; mice, sub-dura injection) of the same compound?
Answer: Its value is “improves”.
